The test system of one assay is CWR22Ru1 cells. The experiment in a line: MTT cell viability assay, CWR22Ru1 cells. The format is cell-based. The settings on record: Homo sapiens, read-out: decrease in cell viability; for cytotoxicity at 10 µM: CWR22Ru1, fisetin 10 μM; for cytotoxicity at 20 µM: CWR22Ru1, fisetin 20 μM; for cytotoxicity at 40 µM: CWR22Ru1, fisetin 40 μM; for cytotoxicity at 60 µM: CWR22Ru1, fisetin 60 μM. The procedure: (§1) obtained from ATCC (Manassas, Va.). LNCaP cells were cultured in Dulbecco's Modified Eagle's medium supplemented with 5% heat-inactivated fetal bovine serum and 1% penicillin/streptomycin (P-S). CWR22Ru1 and PC-3 cells were grown in RPMI 1640 (Invitrogen) supplemented with 10% fetal bovine serum and 1% P-S. Human prostate epithelial cells (PrEC) were obtained from Cambrex Bioscience (Walkersville, Md.) and grown in prostate epithelial basal cell medium (Cambrex Bioscience) according to the manufacturer's instructions. The cells were maintained under standard cell culture conditions at 37° C. and 5% CO2 in a humid environment. Fisetin dissolved in dimethyl sulfoxide (final concentration 0.1% v/v) was used for the treatment of cells. The cells (60-70% confluent) were treated with fisetin (10-60 μM) for 24 and 48 h in complete growth medium.
(§2) Cell viability. The effect of fisetin on the viability of cells was determined by 3-[4,5-dimethylthiazol-2-yl]-2,5-diphenyl tetrazoliumbromide assay. LNCaP, CWR22Ru1, PC-3 and PrEC cells were plated at 1×10^4 cells per well in 200 μl of complete culture medium containing 10-60 μM concentrations of fisetin in 96-well microtiter plates for 24 and 48 h. After incubation for specified times at 37° C. in a humidified incubator, 3-[4,5-dimethylthiazol-2-yl]-2,5-diphenyl tetrazoliumbromide (5 mg/ml in PBS) was added to each well and incubated for 2 h, after which the plate was centrifuged at 1,800×g for 5 min at 4° C. The absorbance was recorded on a microplate reader at the wavelength of 540 nm. The effect of fisetin on growth inhibition was assessed as percent cell viability where DMSO-treated cells were taken as 100% viable. DMSO at the concentrations used was without any effect on cell viability.
In general terms: Tetrazolium dyes change colour on reduction, which living cells bring about.

The next assay deals with cytochrome c. As to the kind of experiment: Detection of cytochrome c release into cytosol. The format is cell-based, human. As to conditions: LNCaP, fisetin 10-60 μM, 48 h. The procedure: Detection of cytochrome c release. After the treatment of LNCaP cells with fisetin (10-60 μM; 48 h), the mitochondrial and cytosolic fractions were prepared according to manufacturer's instructions. After the separation of cytosolic and mitochondrial fraction, 40 μg protein was resolved over 12% polyacrylamide gels and immunoblotted with the cytochrome c and Cox-4 antibodies.

The next assay deals with cdk2, cdk4 and cdk6. The experiment in a line: Western blot, cdks in LNCaP cells. The format is cell-based, human. The settings on record: fisetin 10-60 μM, 48 h. The procedure:
(§3) Protein extraction and western blotting. Following the treatment of LNCaP cells with fisetin (10-60 μM; 48 h), the media was aspirated, the cells were washed with cold PBS (pH 7.4), and ice-cold lysis buffer (50 mM Tris-HCl, 150 mM NaCl, 1 mM EGTA, 1 mM EDTA, 20 mM NaF, 100 mM Na3VO4, 0.5% NP-40, 1% Triton X-100, 1 mM PMSF (pH 7.4)) with freshly added protease inhibitor cocktail (Protease Inhibitor Cocktail Set III, Calbiochem, La Jolla, Calif.) over ice for 30 min. The cells were scraped and the lysate was collected in a microfuge tube and passed through a needle to break up the cell aggregates. […]
(§4) For western blotting, 30-50 μg protein was resolved over 8-12% polyacrylamide gels and transferred to a nitrocellulose membrane. The blot was blocked in blocking buffer (5% nonfat dry milk/1% Tween 20; in 20 mM TBS, pH 7.6) for 1 hr at room temperature, incubated with appropriate monoclonal or polyclonal primary antibody in blocking buffer for 1.5 h to overnight at 4° C., followed by incubation with anti-mouse or anti-rabbit secondary antibody horseradish peroxidase conjugate obtained from Amersham Life Science Inc. and detected by chemiluminescence and autoradiography using XAR-5 film obtained from Eastman Kodak Co. (Rochester, N.Y., USA). […]
Background: In western blotting, separated proteins are transferred to a membrane and probed.

In assay [1] the target is T1, ligand binding domain (LBD) of androgen receptor (AR) (Homo sapiens, UniProt P10275).
T1 sequence (P10275 669-900 limits assumed): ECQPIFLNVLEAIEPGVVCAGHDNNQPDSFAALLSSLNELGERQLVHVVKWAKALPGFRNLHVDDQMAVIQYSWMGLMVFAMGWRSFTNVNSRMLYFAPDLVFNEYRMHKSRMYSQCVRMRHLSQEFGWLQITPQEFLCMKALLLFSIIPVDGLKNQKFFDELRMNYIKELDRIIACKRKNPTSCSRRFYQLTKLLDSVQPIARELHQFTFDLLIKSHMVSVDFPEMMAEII
The experiment in a line: Competition with labeled AR ligand at the ligand binding domain (FIG. 3).

For a further assay, the system named is PC-3 cells. The experiment in a line: MTT cell viability assay, PC-3 cells. The format is cell-based. As to conditions: Homo sapiens, read-out: decrease in cell viability; for cytotoxicity at 10 µM: PC-3, fisetin 10 μM; for cytotoxicity at 20 µM: PC-3, fisetin 20 μM; for cytotoxicity at 40 µM: PC-3, fisetin 40 μM; for cytotoxicity at 60 µM: PC-3, fisetin 60 μM. The procedure: as §1, §2

A further assay relates to XIAP and Smac/DIABLO. As to the kind of experiment: Western blot, XIAP and Smac/DIABLO in LNCaP cells. The settings on record: fisetin 10-60 μM, 48 h. The format is cell-based, human. The procedure:
as §3, §4

Another assay concerns WAF1/p21 and KIP1/p27. As to the kind of experiment: Western blot, WAF1/p21 and KIP1/p27 in LNCaP cells. As to conditions: fisetin 10-60 μM, 48 h. The format is cell-based, human. The procedure: as §3, §4
In assay [2] the test system is Bad, Bax, Bcl2 and Bcl-xL. The experiment in a line: Silencing of Akt by siRNA, Bcl2-family proteins in LNCaP cells. The format is cell-based, human. As to conditions: LNCaP transfected with Akt-siRNA, fisetin 40 μM, 48 h. The procedure:
Silencing of Akt by Small Interfering RNA. LNCaP cells were transfected with Akt-siRNA (75 nmol) and scrambled siRNA (75 nmol) procured from Dharmacon (Lafayette, Colo.) using the Nucleofection Kit R specific for LNCaP transfection from Amaxa Biosystems (Gaithersburg, Md.). Cells were resuspended in a solution from nucleofector kit R following the manufacturer's guidelines. 100 μl of nucleofector solution R was mixed with 2×10^6 cells and siRNA. They were then transferred to the cuvette provided with the kit and were nucleofected with an Amaxa Nucleofector apparatus. Cells were transfected using the T-001 pulsing parameter and were transferred into 100-mm plates containing 37° C. prewarmed culture medium. After transfection, cells were cultured and the medium was replaced with fresh medium. Cells were treated with 40 μM fisetin for 48 h, and protein lysates were prepared. Using 2 μg of GFP we observed 70-80% transfection efficiency with this protocol.

Read-outs that look alike come from different tables or passages of the source.

On to `O=c1c(O)c(-c2ccc(O)c(O)c2)oc2cc(O)ccc12` [fisetin, 3,3′,4′,7-tetrahydroxyflavone], for which, in the assay on CWR22Ru1 cells (24 h), the cytotoxicity at 10 µM was found to be 12%, the cytotoxicity at 20 µM is 26%, the cytotoxicity at 40 µM is 38% and the cytotoxicity at 60 µM amounted to 52%. Moreover, in the assay on CWR22Ru1 cells (48 h), the cytotoxicity at 10 µM is 18%, the cytotoxicity at 20 µM stood at 34%, the cytotoxicity at 40 µM amounted to 44% and the cytotoxicity at 60 µM came to 55%. In addition, the “levels of cytochrome c in the cytosol” value in the assay on cytochrome c is reported as “elevated dose-dependently”. The “protein expression of cdk2, 4 and 6” value in the assay with cdk2, cdk4 and cdk6 is reported as “dose-dependent decrease”. Also, in assay [1], the “competition with labeled AR ligand, interaction with LBD” value is “competes with a labeled AR ligand”. Besides, in the assay with PC-3 cells (24 h), the cytotoxicity at 10 µM was found to be 7%, the cytotoxicity at 20 µM came to 18%, the cytotoxicity at 40 µM was 24% and the cytotoxicity at 60 µM was 33%. Moreover, in the assay on PC-3 cells (48 h), the cytotoxicity at 10 µM stood at 11%, the cytotoxicity at 20 µM is 25%, the cytotoxicity at 40 µM amounted to 32% and the cytotoxicity at 60 µM is 46%. In addition, in the assay with XIAP and Smac/DIABLO, the “protein expression of Smac/DIABLO” value was “induction” and the “protein expression of XIAP” value is given as “inhibition”. The “protein expression of WAF1/p21 and KIP1/p27” value with WAF1/p21 and KIP1/p27 is reported as “induction”. Further, the “Bad, Bax, Bcl2 and Bcl-xL protein expression in Akt-siRNA treated cells” value in assay [2] is “augmented the increase in Bad and Bax and decrease in Bcl2 and Bcl-xL”.

These data come from patent US20100010078A1, “METHODS OF TREATING ANDROGEN DEPENDENT PROSTATE CANCER BY ADMINISTERING AN ACTIVE PHARMACEUTICAL INGREDIENT BEING FISETIN, 3,3',4',7-TETRAHYDROXYFLAVONE OR A DERIVATIVE THEREOF, IN AN ORAL, TRANSDERMAL OR TOPICAL DOSAGE FORM” (priority 2008, published 2010).
